The values below are quoted from earlier work in US12161733B2, “Chemical conjugates of Evans Blue derivatives and their use as radiotherapy and imaging agents for targeting prostate cancer” (THE UNITED STATES OF AMERICA, AS REPRESENTED BY THE …, priority 2018, dated 2024).

This data set has as its system prostate cancer patients.

For `O=C([O-])CN1CCN(CC(=O)[O-])CCN(CC(=O)NCC2CCC(C(=O)N[C@@H](Cc3ccc4ccccc4c3)C(=O)NCCCC[C@H](NC(=O)N[C@@H](CCC(=O)O)C(=O)O)C(=O)O)CC2)CCN(CC(=O)[O-])CC1.[177Lu+3]` (some centres unmarked) [^177Lu-PSMA-617], the side effects result (long-term toxicity unknown) was “only stage 1-2 hematologic toxicities and sporadically mild xerostomia and fatigue”. The partial response rates (up to 3 cycles, response limited to as few as several weeks in some patients) was 70%-80%.
